Here are results for 2 molecules from publication PMC11166409 (Transfusion Medicine and Hemotherapy, 2024).

Structures are written as SMILES. Residues, ends and D or L forms follow the SMILES beside them.

For this assay, the target named is HLA-A*02:01 (Homo sapiens, UniProt P04439, D140Y/D185E/D98H/E176V/E277Q/G131W/G231S/I119V/I121R/I166T/I218V/L300P/L318F/N151K/N90K/P208A/P217A/Q86G/Q94H/R138H/R169H/T345S). Put plainly: Competition-based peptide binding assay on EBV-LCL48 cells.

What is called IC50 is the concentration at which inhibition is half-maximal. Take `CC[C@H](C)[C@H](NC(=O)[C@@H](N)Cc1ccc(O)cc1)C(=O)N[C@@H](Cc1ccc(O)cc1)C(=O)N[C@@H](CC(N)=O)C(=O)N[C@@H](CCCNC(=N)N)C(=O)N[C@@H](CCC(=O)O)C(=O)N[C@@H](CCC(=O)O)C(=O)N[C@@H](CC(C)C)C(=O)N[C@H](C(=O)O)C(C)C` (H-YIYNREELV-OH): the IC50 came out at 3.9 µM. In turn, `CC[C@H](C)[C@H](NC(=O)[C@@H](N)Cc1ccc(O)cc1)C(=O)N[C@@H](Cc1ccc(O)cc1)C(=O)N[C@@H](CC(N)=O)C(=O)N[C@@H](CCCNC(=N)N)C(=O)N[C@@H](CCC(=O)O)C(=O)N[C@@H](CCC(=O)O)C(=O)N[C@@H](Cc1ccccc1)C(=O)N[C@H](C(=O)O)C(C)C` (H-YIYNREEFV-OH) had an IC50 of 4.9 µM.
